Assay results published in patent US20150265558A1, “TREATMENT OF ADHD” (BTG International Limited, priority 2004, published 2015).

Legend:
[1] = Plasma determination of acetoacetate after i.p. injection; assay type: in vivo, Sprague-Dawley rats; settings: 30 min after dosing
Procedure: (§1) One hundred and seventy-one male Sprague-Dawley rats (weight range 200-250 g) housed on a standard […] were used. Animals had free access to a standard pelleted rat diet and tap water at all times. KTX 0101 (sodium (R)-3-hydroxybuytrate; 100, 300, 600 and 1000 mg/kg body weight) supplied by Sigma (H6501, Lot 111K2618) was administered by intraperitoneal injection. Control animals received the appropriate 0.9% saline vehicle via the same route. Animals were killed by CO2 asphyxiation 0 h, 0.5 h, 1.0 h or 2.0 h after dosing and a terminal blood sample was collected by cardiac puncture. Blood was taken in lithium heparinised tubes and kept on ice prior to centrifugation to yield the plasma samples for analysis.
The assay developed for the determination of acetoacetate was based on previously published clinical assays (Li et al, 1980; McMurray et al, 1984). A different assay buffer was prepared (0.1M Na2PO4 adjusted to pH 7.0 with HCl) in order to shift the equilibrium of the reaction to production of […] and NAD+, Other modifications included the additional use of sodium oxalate at a final assay concentration of 20 mM to inhibit lactate dehydrogenase (LDH) present in the plasma samples. […]
Acetoacetate was measured via the reduction in OD340 nm over a 1 minute period after allowing for the reaction rate to settle.

[2] = Plasma determination of (R)-3-hydroxybutyrate after i.p. injection; assay type: in vivo, Sprague-Dawley rats
Procedure: as §1
Commercial clinical assay kits for the determination of D-β-hydroxybutyrate were obtained from Randox Laboratories (Antrim, UK). The kit quantified NADH via the activity of β-hydroxybutyrate dehydrogenase measured as an increase in OD340 nm. An alkaline pH is necessary to drive the reaction equilibrium towards the production of NADH and acetoacetate.
This spectrophotometric assay was modified for application to a 96 well microplate format. The reaction rate was then determined from the increase in OD340 nm over a 1 minute time course, after allowing a necessary period for the reaction rate to settle.

[3] = tested on: Fisher rats (frontal cortex, hippocampus, striatum, reticular formation); experiment: Tele-Stereo-EEG: electrical power of four brain areas in freely-moving rats after single i.p. dose; assay type: in vivo, rat
Description: Analysis of brain field potentials (“Tele-Stereo-EEG”) has been proven to be a very sensitive tool for the characterization of drug effects on the central nervous system (Dimpfel et al., 1986). After administration of a centrally active drug, quantitative changes in the brain field potentials can be considered as a characteristic fingerprint of that particular drug. “Fingerprints” of more than 100 compounds have been obtained including 8 established drug categories, e.g. stimulants, sedatives, hallucinogenics, tranquilizers, analgesics, antidepressants, neuroleptics, and narcotics. Different dosages of the same drug cause quantitative changes in electrical power. […] Direct comparison with specific reference drugs, or by discriminant analysis with reference to an extensive fingerprint database, permits the detection of any possible similarities with established drugs. In general, “fingerprints” show prominent differences for drugs prescribed for different indications and are similar for drugs with the same indication (Dimpfel, 2003). Furthermore, the pattern of EEG changes in the rat is a useful tool in predicting possible changes in the EEG power spectrum in humans.
Adult Fisher rats (4-6 month of age and day—night converted, bodyweight approximately 400 g) were implanted with 4 bipolar concentric steel electrodes using a stereotaxic surgical procedure. According to the coordinates of Paxinos and Watson (1982), all four electrodes were placed 3 mm lateral within the left hemisphere. Anterior coordinates were 12.2, 5.7, 9.7 and 3.7 mm for frontal cortex, hippocampus, striatum and reticular formation, respectively. A baseplate carrying the electrodes and a 5-pin-plug was fixed to the skull by dental cement attached to 3 steel screws fixed into the skull. Animals were given two weeks for recovery from the surgical procedure.
EEG signals were recorded from frontal cortex, hippocampus, striatum and reticular formation and were amplified and processed as described by Dimpfel et al. (1986). After automatic artifact rejection, signals were collected in sweeps of 4 s duration and submitted to Fast Fourier transformation. The resulting electrical power spectra were divided into 6 frequency ranges: delta (0.8-4.5 Hz); theta (4.75-6.75 Hz); alpha1 (7.00-9.50 Hz); alpha2 (9.75-12.50 Hz); beta (12.75-18.50 Hz); beta2 (18.75-35.00 Hz). […] In an off-line procedure spectra were averaged to give 15 minute or longer periods for further statistical analysis.
Four doses of KTX 0101 (sodium (R)-3-hydroxybuytrate: 100, 300, 600 and 1000 mg/kg body weight) (supplied by Solvias AG, CH 4002 Basel, Switzerland, batch No: SO-1058.047.1.120) and a vehicle control (0.9% w/v saline) were administered intraperitoneally to a group of 12 animals using a crossover design with at least 3 drug holidays in between the applications. After a pre-drug period of 45 minutes for baseline recording, drug effects were observed continuously for 300 minutes. Changes of electrical power (uV2/W) are expressed as percentage of the 45 minute pre-drug values. Multivariate statistics were calculated according to Ahrens and Läuter (1974).

freely moving rat = settings: cited from earlier work; for effect on alpha2 frequencies: Dimpfel et al., 1987

## C[C@@H](O)CC(=O)[O-].[Na+] [KTX 0101, sodium (R)-3-hydroxybuytrate]
[1]; 600 mg/kg
  plasma concentration of acetoacetate: significantly increased
[1]; 1000 mg/kg
  plasma concentration of acetoacetate: significantly increased
[2]; 100, 300, 600 and 1000 mg/kg ip
  plasma concentration of (R)-3-hydroxybutyrate: clear dose-dependent increases
[2]; 100-1000 mg/kg ip, first sample
  time of highest elevation in plasma (R)-3-hydroxybutyrate: 30 min
[2]; after injection
  time to return of plasma (R)-3-hydroxybutyrate to control values: ≤ 1 h
[3]; 100 mg/kg i.p.
  duration of EEG effects: 1 to 2 h
  statistical significance of EEG changes: not statistically significant
[3]; 100 mg/kg i.p., all regions
  pattern of change in EEG electrical power: decrease of electrical power mainly with regard to alpha2
[3]; 300 mg/kg ip
  duration of EEG pattern of changes: 2 h
  pattern of change in EEG electrical power: decreases in alpha2 power throughout all brain regions
  statistical significance of EEG changes: only statistically significant in the reticular formation
[3]; 600 mg/kg ip, generally, except reticular formation
  duration of EEG effects: 2 h
[3]; 600 mg/kg ip, reticular formation
  duration of decreases in power in the reticular formation: persisted throughout the third hour
[3]; 600 mg/kg ip, incl. first hour in striatum and all 24 variables overall
  statistical significance of EEG changes: statistically significant
[3]; 1000 mg/kg
  duration of decreases of power: lasting into the third hour
  pattern of change in EEG electrical power: more prominent decreases of power
[3]; 1000 mg/kg, reticular formation, total experimental time
  duration of decreases of power in the reticular formation: 5 h
[3]; 1000 mg/kg, even for the 4th hour within the reticular formation
  statistical significance of EEG changes: statistically significant
[3]; 2 highest doses (600 and 1000 mg/kg)
  brain regions with significant EEG changes: significant changes were also observed in the frontal cortex, hippocampus and striatum
[3]; 24 variables, 20th to 50th min after single-dose application
  similarity of qEEG fingerprint to drug classes by discriminant analysis: close proximity to the dopaminergic psychostimulants, d-amphetamine and cocaine
[3]; 100 to 1000 mg/kg i.p.
  EEG frequencies affected: all frequencies, except for the beta2 range
[3]; after injection
  period of greatest changes in EEG patterns: 5 to 65 min
[3]; dose range of 300 to 1000 mg/kg ip
  EEG changes, summary: clear, dose- and time-dependent statistically significant changes

## Clc1cccc(Cl)c1N=C1NCCN1 [clonidine]
Freely moving rat; Dimpfel and Schober, 2001
  effect on theta activity: increase

## N[C@@H](Cc1ccc(O)c(O)c1)C(=O)O [L-DOPA]
Freely moving rat
  effect on alpha2 frequencies: decrease alpha2 frequencies

## Oc1cc2c(cc1O)C(c1ccccc1)CNCC2 (stereo not drawn) [SKF 38393]
Freely moving rat
  effect on alpha2 frequencies: decrease alpha2 frequencies

## CC(N)Cc1ccccc1 (stereo not drawn) [amphetamine]
Freely moving rat
  effect on alpha2 frequencies: decrease alpha2 frequencies
